From ChEMBL document CHEMBL4007499, “Anti-influenza triterpenoid saponins (saikosaponins) from the roots of Bupleurum marginatum var. stenophyllum” (Bioorg Med Chem Lett, 2017) come the findings set out here.

Where only a bound is given, the exact number is not on record here.

Series [1] in a line: Cytotoxicity against human 293T cells expressing Gluc assessed as inhibition of cell proliferation at 20 uM after 24 hrs by CCK8 assay relative to control. Format: cell-based. Conditions: 293T (HEK-293T) cells expressing Gluc.
The next series can be described thus: in vitro. Conditions: human, 293T cells expressing Gluc.
The nature of another series: cells. Conditions: Influenza A virus, HEK-293T.
Series [2] can be described thus: Cytotoxicity against human 293T cells expressing Gluc assessed as inhibition of cell proliferation after 24 hrs by CCK8 assay. Format: cell-based. Conditions: 293T (HEK-293T) cells expressing Gluc.

Description for cells: Antiviral activity against Influenza virus A/WSN/33(H1N1) infected in human 293T cells assessed as inhibition of viral replication preincubated for 2 hrs followed by viral infection measured after 24 hrs by luciferase reporter gene assay
Description for in vitro: Selectivity index, ratio of CC50 for human 293T cells expressing Gluc to EC50 for Influenza A virus WSN/33(H1N1)

As to `C[C@H]1O[C@@H](O[C@H]2CC[C@@]3(C)[C@@H](CC[C@]4(C)[C@@H]3C=CC3=C5C[C@@](C)(CO)CC[C@]5(CO)[C@@H](O)C[C@]34C)[C@]2(C)CO)[C@H](O)[C@@H](O[C@@H]2O[C@H](CO)[C@@H](O)[C@H](O)[C@H]2O)[C@H]1O`, the inhibition at 24 h, 20 µM in series [1] is 5.87%.
For the compound `C[C@@H]1O[C@@H](O[C@H]2[C@H](O)[C@@H](O)[C@H](O[C@H]3CC[C@@]4(C)[C@@H](CC[C@]5(C)[C@@H]4C=CC4=C6CC(C)(C)CC[C@]6(CO)[C@@H](O)[C@H](O)[C@]45C)[C@]3(C)CO)O[C@@H]2CO[C@@H]2O[C@H](CO)[C@@H](O)[C@H](O)[C@H]2O)[C@H](O)[C@H](O)[C@H]1O`, the selectivity ratio in “in vitro” was more than 26.1. Further, the concentration giving a half-maximal response (EC50) in “cells” came out at 7.67 µM. The half-maximal cytotoxic concentration (CC50) at 24 h in series [2] was more than 200 µM. Further, in series [1], the inhibition at 24 h, 20 µM was determined as 0%.
In the case of `C[C@@H]1O[C@@H](O[C@H]2[C@H](O)[C@@H](O)[C@H](O[C@H]3CC[C@]4(C)[C@H]5C=CC6=C7CC(C)(C)CC[C@]7(CO)[C@@H](O)[C@H](O)[C@@]6(C)[C@]5(C)CC[C@H]4C3(C)C)O[C@@H]2CO[C@@H]2O[C@H](CO)[C@@H](O)[C@H](O)[C@H]2O)[C@H](O)[C@H](O)[C@H]1O`, the selectivity ratio in “in vitro” was more than 19.8. This compound registered a 50% effective concentration (EC50) in “cells” of 10.1 µM. Moreover, in series [2], the CC50 at 24 h is more than 200 µM. The inhibition at 24 h, 20 µM in series [1] worked out at 5.14%.
For the compound `C[C@H]1O[C@@H](O[C@H]2CC[C@@]3(C)[C@@H](CC[C@]4(C)[C@@H]3C=CC3=C5CC(C)(C)CC[C@]5(CO)C(=O)C[C@]34C)[C@]2(C)CO)[C@H](O)[C@@H](O[C@@H]2O[C@H](CO)[C@@H](O)[C@H](O)[C@H]2O)[C@H]1O`, in series [1], the inhibition at 24 h, 20 µM is 9%.
`NC(=O)c1ncn([C@@H]2O[C@H](CO)[C@@H](O)[C@H]2O)n1` [RIBAVIRIN]: in the series “in vitro”, the selectivity ratio is more than 11.4. For the same compound, in “cells”, the response was half-maximal at 17.9 µM (EC50). In addition, the 50% cytotoxic concentration (CC50) at 24 h in series [2] was more than 205 µM. The inhibition at 24 h, 20 µM in series [1] was found to be 0%.
With `C[C@H]1O[C@@H](O[C@H]2CC[C@]3(C)C4=CC=C5[C@@H]6CC(C)(C)CC[C@]6(CO)[C@H](O)C[C@@]5(C)[C@]4(C)CC[C@H]3[C@]2(C)CO)[C@H](O)[C@@H](O[C@@H]2O[C@H](CO)[C@@H](O)[C@H](O)[C@H]2O)[C@H]1O`, the selectivity ratio in the series “in vitro” came to 1.75. In “cells”, this compound registered an EC50 of 21.8 µM. In series [2], the CC50 at 24 h turned out to be 38.2 µM. Further, the inhibition at 24 h, 20 µM in series [1] was determined as 1.39%.
For `C[C@H]1O[C@@H](O[C@H]2CC[C@]3(C)[C@H]4C=C[C@]56OC[C@@]7(CCC(C)(C)C[C@H]75)[C@@H](O)C[C@@]6(C)[C@]4(C)CC[C@H]3C2(C)C)[C@H](O)[C@@H](O[C@@H]2O[C@H](CO)[C@@H](O)[C@H](O)[C@H]2O)[C@H]1O`, in that order: 1.33, 2.14 µM, 2.85 µM and 44.8%.
Turning to `C[C@@H]1O[C@@H](O[C@H]2[C@H](O)[C@@H](O)[C@H](O[C@H]3CC[C@@]4(C)[C@@H](CC[C@]5(C)[C@@H]4CC=C4[C@@H]6CC(C)(C)CC[C@]6(CO)[C@@H](O)C[C@]45C)[C@]3(C)CO)O[C@@H]2CO[C@@H]2O[C@H](CO)[C@@H](O)[C@H](O)[C@H]2O)[C@H](O)[C@H](O)[C@H]1O`, the selectivity ratio in “in vitro” was more than 11.2. The compound further showed a 50% effective concentration (EC50) in “cells” of 17.9 µM. In addition, in series [2], the CC50 at 24 h was more than 200 µM. Besides, in series [1], the inhibition at 24 h, 20 µM is 0%.
Consider `C[C@H]1O[C@@H](O[C@H]2CC[C@@]3(C)[C@@H](CC[C@]4(C)[C@@H]3C=CC3=C5CC(C)(C)CC[C@]5(CO)C(=O)[C@H](O)[C@]34C)[C@]2(C)CO)[C@H](O)[C@@H](O[C@@H]2O[C@H](CO)[C@@H](O)[C@H](O)[C@H]2O)[C@H]1O`, for which the inhibition at 24 h, 20 µM in series [1] came to 0%.
Consider `CO[C@@H]1C=C2[C@@H]3CC(C)(C)CC[C@]3(CO)[C@@H](O)C[C@@]2(C)[C@]2(C)CC[C@H]3C(C)(C)[C@@H](O[C@@H]4O[C@H](CO[C@@H]5O[C@H](CO)[C@@H](O)[C@H](O)[C@H]5O)[C@@H](O[C@@H]5O[C@@H](C)[C@H](O)[C@@H](O)[C@H]5O)[C@H](O)[C@H]4O)CC[C@]3(C)[C@@H]12`, for which the inhibition at 24 h, 20 µM in series [1] stood at 0%.
With `C[C@H]1O[C@@H](O[C@H]2CC[C@@]3(C)[C@@H](CC[C@]4(C)[C@@H]3C=C[C@]35OC[C@@]6(CCC(C)(C)C[C@H]63)C(=O)C[C@]54C)[C@]2(C)CO)[C@H](O)[C@@H](O[C@@H]2O[C@H](CO)[C@@H](O)[C@H](O)[C@H]2O)[C@H]1O`, the selectivity ratio in “in vitro” came to 1.43. For the same compound, the midpoint of the response in the series “cells”, the EC50, lay at 2.66 µM. For the same compound, the half-maximal cytotoxic concentration (CC50) at 24 h in series [2] amounted to 3.8 µM. In addition, the inhibition at 24 h, 20 µM in series [1] worked out at 49.7%.
In the same order, the values of `C/C=C/C(=O)OC[C@H]1O[C@@H](O[C@H]2[C@@H](O)[C@@H](C)O[C@@H](O[C@H]3CC[C@@]4(C)[C@@H](CC[C@]5(C)[C@@H]4C=C[C@]46OC[C@@]7(CCC(C)(C)C[C@H]74)[C@@H](O)C[C@]65C)[C@]3(C)CO)[C@@H]2O)[C@H](O)[C@@H](O)[C@@H]1O` are 0.79, 8.92 µM, 7.02 µM and 44.2%.
On to `CO[C@@H]1C=C2[C@@H]3CC(C)(C)CCC3=C(O)C(=O)[C@@]2(C)[C@]2(C)CC[C@H]3[C@](C)(CO)[C@@H](O[C@@H]4O[C@H](C)[C@H](O)[C@H](O[C@@H]5O[C@H](CO)[C@@H](O)[C@H](O)[C@H]5O)[C@H]4O)CC[C@]3(C)[C@@H]12`, for which, in series [1], the inhibition at 24 h, 20 µM was determined as 0%.
As for `C[C@H]1O[C@@H](O[C@H]2CC[C@@]3(C)[C@@H](CC[C@]4(C)[C@@H]3C=CC3=C5CC(C)(C)CC[C@]5(CO)[C@@H](O)C[C@]34C)[C@]2(C)CO)[C@H](O)[C@@H](O)[C@H]1O`, the selectivity ratio in the series “in vitro” was 2.89. Moreover, in “cells”, the response was half-maximal at 8.48 µM (EC50). In addition, the CC50 at 24 h in series [2] is 24.5 µM. Also, the inhibition at 24 h, 20 µM in series [1] was 0%.
With `C[C@H]1O[C@@H](O[C@H]2CC[C@]3(C)C4=CC=C5[C@@H]6CC(C)(C)CC[C@]6(CO)[C@@H](O)C[C@@]5(C)[C@]4(C)CC[C@H]3[C@]2(C)CO)[C@H](O)[C@@H](O[C@@H]2O[C@H](CO)[C@@H](O)[C@H](O)[C@H]2O)[C@H]1O`, in the series “in vitro”, the selectivity ratio was determined as 1.19. The EC50 in the series “cells” worked out at 15.8 µM. The CC50 at 24 h in series [2] worked out at 18.9 µM. Also, the inhibition at 24 h, 20 µM in series [1] amounted to 1.39%.
